In paper PMC9917184, “Synthesis and Biological Evaluation of Potential Oncoimmunomodulator Agents” (International Journal of Molecular Sciences, 2023):

How the values were obtained:
[1] = tested on: PD-L1 gene expression; experiment: PD-L1 gene expression by RT-qPCR in MCF-7; type: cell-based, human; details: MCF-7, 100 µM, 48 h, control = 100
Procedure: We also studied the effect of compounds 3, 5, and 7 on both c-Myc and PD-L1 gene expression by RT-qPCR. For this study, we treated MCF-7 cells with 100 µM of the abovementioned compounds, and DMSO was used as a negative control and BMS-8 as a reference compound. After 48 h, cells were lysated, and after the extraction of their mRNA, a RT-pPCR assay was performed as described in the Experimental section.
MCF-7 cells at 70–80% confluence were collected, and 1.5 × 10^5 cells were placed in a six-well plate in 1.5 mL of medium. After 24h, cells were incubated with the corresponding compounds for 48 h. Cells were collected, and the total cellular RNA from MCF-7 cells was isolated using the Ambion RNA extraction kit according to the manufacturer’s instructions. The cDNA was synthesized by MMLV-RT with […] of extracted RNA and oligo(dT)15 according to the manufacturer’s instructions. Genes were amplified by a thermal cycler and StepOnePlus™ TaqMan® probes. TaqMan® Gene Expression Master Mix Fast containing the appropriate buffer for the amplification conditions, dNTPs, thermostable DNA polymerase enzymes, and a passive reference probe was used. To amplify each of the genes, the predesigned primers sold by Life Technologies TaqMan® Gene Expression Assays, Hs99999903-m1 (β-actin), Hs00153408-m1 (c-Myc), and Hs00204257-m1, (PD-L1) were used.

[2] = tested on: IL-6; experiment: IL-6 secretion to the media by ELISA; type: cell-based, human; details: 100 μM, 24 h, control = 100
Procedure: We determined the effect of these compounds on the secretion of IL-6 in monocultures of MCF-7 cells, to establish the effect on cancer cells in monocultures of immune cells THP-1 and in co-cultures of MCF-7 and THP-1 (1:5 proportion). Assays were performed by ELISA using cell media after treatments with selected compounds at 100 μM for 24 h.

[3] = tested on: c-Myc; experiment: Immunofluorescence microscopy of c-Myc in MCF-7; type: cell-based, human; details: MCF-7, 24 h of treatment
From the text: (§1) We also observed the effect of triazole derivatives 3, 5 and 7 on both targets in MCF-7 by immunofluorescence microscopy (see Figure 2). We stained both targets with anti-PD-L1 conjugated to AlexaFluor®647 (red in Figure 2), as well as anti-c-Myc conjugated to fluorescein (green in Figure 2), to determine the amount of both targets. The nucleus was stained with Hoechst (blue in Figure 2).
(§2) We observed that in the DMSO control, c-Myc was located in the nucleus of the cell and the nucleus membrane nearby, and PD-L1 was preferentially positioned in the membrane or cytosol, favoring the contact between surrounding cells.
(§3) For immunofluorescence microscopy of the microtubule network, […] cells were plated on cover glass and incubated with the selected compounds. Cells were then fixed in 4% formaldehyde (in PBS pH 7.4) for 20 min at room temperature and permeabilized with PBS-Triton X-100 0.5% for 1 min at room temperature. Direct immunostaining was carried out for 1 h at room temperature with FITC Mouse monoclonal Anti-c-Myc (ab223913) and Alexa Fluor® 647 Rabbit monoclonal Anti-PD-L1 (ab215251). Then, cells were washed in PBS, and cover glasses were mounted with a drop of ProLong® antifade solution (Invitrogen). The cytoskeleton was imaged by a confocal laser scanning microscope (CLSM) Leica SP5 with a Leica inverted microscope, equipped with 20x objective. Each image was recorded with the CLSM’s spectral mode selecting specific domains of the emission spectrum. The FITC fluorophore was excited at 488 nm with an argon laser, and its fluorescence emission was collected between 496 nm and 535 nm.

[4] = target: T1, PD-L1 (Homo sapiens, UniProt Q9NZQ7); experiment: Total PD-L1 relative quantification by flow cytometry in cancer cell lines; type: cell-based; set-up: Alexa Fluor® 647 Rabbit monoclonal Anti-PD-L1 (ab215251); endogenous in cells; host or cells: HT-29; details: 24 h, total PD-L1 relative to negative control (DMSO)
T1 sequence (Q9NZQ7 19-290): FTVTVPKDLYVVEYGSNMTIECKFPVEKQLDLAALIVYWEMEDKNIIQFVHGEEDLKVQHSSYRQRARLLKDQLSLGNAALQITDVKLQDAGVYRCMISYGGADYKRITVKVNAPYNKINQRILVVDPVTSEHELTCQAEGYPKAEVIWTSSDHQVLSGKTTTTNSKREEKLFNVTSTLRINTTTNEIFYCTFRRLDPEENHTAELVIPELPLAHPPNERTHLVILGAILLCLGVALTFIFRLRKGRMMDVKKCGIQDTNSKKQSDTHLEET
Procedure: The effect of these triazole derivates on c-Myc and PD-L1 was measured in three different cancer cell lines (HT-29, MCF-7, A-549) by flow cytometry. Thus, cells were incubated for 24 h with the corresponding compound at a concentration of 100 μM. Dimethyl sulfoxide (DMSO)-treated cells were used as the negative control, and a PD-L1 inhibitor, BMS-8 [29, 31], was used as a reference control. After permeabilization and fixation, cells were treated with anti-PD-L1 conjugated to AlexaFluor®647 and anti-c-Myc conjugated to fluorescein to determine the amount of both targets related to the negative control. Table 1 show the results in terms of the percentage of the detected target in relation to the negative control. This assay was carried out on cancer cell lines HT-29, MCF-7, and A-549.
To study the effect of the compounds on every biological target in cancer cell lines, the compounds were used at a 100 µM dose.
For the assay, 10^5 cells per well were incubated for 24 h with the corresponding dose of the tested compound in a total volume of 500 μL of their growth media.
To detect total PD-L1 and c-Myc, after the cell treatments, they were collected and fixed with 4% in PBS paraformaldehyde. After fixation, a treatment with 0,5% in PBS Triton™ X-100 was performed, and finally, cells were stained with FITC Mouse monoclonal Anti-c-Myc (ab223913) and Alexa Fluor® 647 Rabbit monoclonal Anti-PD-L1 (ab215251).

[5] = target: T1, PD-L1; experiment: Immunofluorescence microscopy of PD-L1 in MCF-7; type: cell-based; set-up: Alexa Fluor® 647 Rabbit monoclonal Anti-PD-L1 (ab215251); endogenous in cells; host or cells: MCF-7; details: MCF-7, 24 h of treatment
From the text: as §1, §2, §3

Row | Compound | % PD-L1 gene expression [1] [%] | Percentage of secreted IL-6 to the media ([2]; MCF7 monoculture) [%] | c-Myc localisation (confocal images) [3] | remaining activity at 100 µM ([4]; A549, A-549, 100 µM) [%] | remaining activity at 100 µM ([4]; HT-29, 100 µM) [%] | remaining activity at 100 µM ([4]; MCF7, MCF-7, 100 µM) [%] | PD-L1 localisation (confocal images) [5] | Percentage of secreted IL-6 to the media ([2]; MCF7 + THP-1 co-culture (1:5)) [%] | Percentage of secreted IL-6 to the media ([2]; THP-1 monoculture) [%]
1 | Cc1c(COc2ccc(CN3CCCCC3C(=O)O)cc2Br)cccc1-c1ccccc1 (stereo not shown) [BMS-8, reference compound] | 31 ± 12 | 41 ± 65 | not altered | 70 ± 8 | 68 ± 10 | 77 ± 3 | located preferentially in the nucleus | – | –
2 | COc1ccc(C(OCCc2ccc(CCn3cc(-c4ccc(Br)cc4)nn3)cc2)(c2ccccc2)c2ccc(OC)cc2)cc1 [Compound 3, 1-(4-(2-(bis(4-methoxyphenyl)(phenyl)methoxy)ethyl)phenethyl)-4-(4-bromophenyl)-1H-1,2,3-triazole] | 33 ± 10 | 92 ± 4 | preferentially in the nucleus of the cells | 58 ± 10 | 47 ± 1 | 108 ± 13 | accumulates in the cytosol | 156 ± 12 | 183 ± 5
3 | COc1ccc(C(OCCc2ccc(CCn3cc(-c4cccc(Br)c4)nn3)cc2)(c2ccccc2)c2ccc(OC)cc2)cc1 [Compound 5, 1-(4-(2-(bis(4-methoxyphenyl)(phenyl)methoxy)ethyl)phenethyl)-4-(3-bromophenyl)-1H-1,2,3-triazole] | 21 ± 8 | 73 ± 29 | aggregated around the nucleus membrane | 70 ± 16 | 38 ± 1 | 87 ± 1 | accumulated in the interface of cells and in the nucleus | 137 ± 24 | 173 ± 24
4 | COc1ccc(C(OCCc2ccc(CCn3cc(-c4ccccc4Br)nn3)cc2)(c2ccccc2)c2ccc(OC)cc2)cc1 [Compound 7, 1-(4-(2-(bis(4-methoxyphenyl)(phenyl)methoxy)ethyl)phenethyl)-4-(2-bromophenyl)-1H-1,2,3-triazole] | 36 ± 9 | 91 ± 39 | aggregated in the nucleus of the cells | 86 ± 20 | 45 ± 7 | 80 ± 4 | preferentially in cytosol | 115 ± 4 | 158 ± 11
